Experimental data from US20170107207A1, “AMINOPYRAZOLONE DERIVATIVE” (DAIICHI SANKYO COMPANY, LIMITED, priority 2014, published 2017).

Experiments:
Type in all cases: cell-based
[1] = system: A549; test: Cell growth inhibition test, A549; settings: Homo sapiens, 72 h; A549, Lung cancer, 3 days, CellTiter-Glo
Description: (§1) A cell growth inhibition test was carried out by treating a cultured cancer cell line with a test compound for a given period and then counting the number of viable cells by CellTiter-Glo Luminescent Cell Viability Assay (manufactured by Promega Corp.).
(§2) The following cells were inoculated to a 384-well plate containing the compound prepared in advance at predetermined concentrations. […]
(§3) The cells thus inoculated were cultured at 37° C. for 3 days under 5% CO2. […] Then, luminescence intensity was measured using a plate reader.
(§4) The number of viable cells and luminescence intensity have been confirmed to correlate with each other. Therefore, the rate of cell growth was calculated according to the following expression: Rate of cell growth (T/C %) of a test compound-supplemented well=100×[(B−C)/(A−C)] wherein A represents the luminescence intensity (final culture date) of a test compound-free well; B represents the luminescence intensity (final culture date) of a test compound-containing well; and C represents the luminescence intensity (day of cell inoculation) of a well at the start of contact of the cells with the test compound.
(§5) T/C % at the concentration of each of the serially diluted test compounds was determined. […]

[2] = system: HCT-15; test: Cell growth inhibition test, HCT-15; settings: Homo sapiens, 72 h; HCT-15, Large intestine cancer, 3 days, CellTiter-Glo
Description: as §1, §2, §3, §4, §5

[3] = system: BT-20; test: Cell growth inhibition test, BT-20; settings: Homo sapiens, 72 h; BT-20, Breast cancer, 3 days, CellTiter-Glo
Description: as §1, §2, §3, §4, §5

[4] = system: U251; test: Cell growth inhibition test, U251; settings: Homo sapiens, U-251, 72 h; U251, Brain tumor Central Nerve System, 3 days, CellTiter-Glo
Description: as §1, §2, §3, §4, §5

[5] = system: OCI-LY7; test: Cell growth inhibition test, OCI-LY7; settings: Homo sapiens, 72 h; OCI-LY7, Lymphoma, 3 days, CellTiter-Glo
Description: as §1, §2, §3, §4, §5

[6] = system: DOHH-2; test: Cell growth inhibition test, DOHH-2; settings: Homo sapiens, 72 h; DOHH-2, Lymphoma, 3 days, CellTiter-Glo
Description: as §1, §2, §3, §4, §5

[7] = system: MDA-MB-468; test: Cell growth inhibition test, MDA-MB-468; settings: Homo sapiens, 72 h; MDA-MB-468, Breast cancer, 3 days, CellTiter-Glo
Description: as §1, §2, §3, §4, §5

[8] = system: CAPAN-2; test: Cell growth inhibition test, CAPAN-2; settings: Homo sapiens, 72 h; CAPAN-2, Pancreatic cancer, 3 days, CellTiter-Glo
Description: as §1, §2, §3, §4, §5

[9] = system: SW948; test: Cell growth inhibition test, SW948; settings: Homo sapiens, 72 h; SW948, Large intestine cancer, 3 days, CellTiter-Glo
Description: as §1, §2, §3, §4, §5

[10] = system: PC-3; test: Cell growth inhibition test, PC-3; settings: Homo sapiens, 72 h; PC-3, Prostate cancer, 3 days, CellTiter-Glo
Description: as §1, §2, §3, §4, §5

[11] = system: U2 OS; test: Cell growth inhibition test, U2 OS; settings: Homo sapiens, U2OS, 72 h, Bone and soft tissue tumor, 3 days, CellTiter-Glo
Description: as §1, §2, §3, §4, §5

[12] = system: MOLT-3; test: Cell growth inhibition test, MOLT-3; settings: Homo sapiens, 72 h; MOLT-3, Leukemia, 3 days, CellTiter-Glo
Description: as §1, §2, §3, §4, §5

[13] = system: A375; test: Cell growth inhibition test, A375; settings: Homo sapiens, A-375, 72 h; A375, Skin cancer, 3 days, CellTiter-Glo
Description: as §1, §2, §3, §4, §5

[14] = system: BxPC-3; test: Cell growth inhibition test, BxPC-3; settings: Homo sapiens, 72 h; BxPC-3, Pancreatic cancer, 3 days, CellTiter-Glo
Description: as §1, §2, §3, §4, §5

[15] = system: A-172; test: Cell growth inhibition test, A-172; settings: Homo sapiens, 72 h; A-172, Brain tumor Central Nerve System, 3 days, CellTiter-Glo
Description: as §1, §2, §3, §4, §5

[16] = system: RAMOS; test: Cell growth inhibition test, RAMOS; settings: Homo sapiens, 72 h, Lymphoma, 3 days, CellTiter-Glo
Description: as §1, §2, §3, §4, §5

[17] = system: U266B1; test: Cell growth inhibition test, U266B1; settings: Homo sapiens, 72 h; U266B1, Multiple myeloma, 3 days, CellTiter-Glo
Description: as §1, §2, §3, §4, §5

[18] = system: OVCAR-5; test: Cell growth inhibition test, OVCAR-5; settings: Homo sapiens, 72 h; OVCAR-5, Ovary cancer, 3 days, CellTiter-Glo
Description: as §1, §2, §3, §4, §5

[19] = system: DU 145; test: Cell growth inhibition test, DU 145; settings: Homo sapiens, 72 h; DU 145, Prostate cancer, 3 days, CellTiter-Glo
Description: as §1, §2, §3, §4, §5

GI50 [1] [nM]	GI50 [2] [nM]	GI50 [3] [nM]	GI50 [4] [nM]	GI50 [5] [nM]	GI50 [7] [nM]	GI50 [9] [nM]	GI50 [10] [nM]	GI50 [12] [nM]	GI50 [13] [nM]	GI50 [14] [nM]	GI50 [16] [nM]	GI50 [17] [nM]	GI50 [18] [nM]	Structure (SMILES)	GI50 [6] [nM]	GI50 [8] [nM]	GI50 [11] [nM]	GI50 [15] [nM]	GI50 [19] [nM]
910	2700	590	440	130	170	3900	1400	110	280	220	130	220	540	CCOc1ccc(Cl)cc1C(=O)NCC(C)(C)CC(=O)Nc1c([C@H](C)CN(C)C)n(C)n(-c2ccccc2)c1=O [Example 68, 5-Chloro-N-[4-({5-[(1R)-2-(dimethylamino)-1-methylethyl]-1-methyl-3-oxo-2-phenyl-2,3-dihydro-1H-pyrazol-4-yl}amino)-2,2-dimethyl-4-oxobutyl]-2-ethoxybenzamide]	240	640	530	380	530
2000	4000	1300	980	370	510	4200	1500	190	560	440	220	620	750	CCOc1ncc(Cl)cc1C(=O)NCC(C)(C)CC(=O)Nc1c([C@H](C)CN(C)C)n(C)n(-c2ccccc2)c1=O [Example 73, 5-Chloro-N-[4-({5-[(1R)-2-(dimethylamino)-1-methylethyl]-1-methyl-3-oxo-2-phenyl-2,3-dihydro-1H-pyrazol-4-yl}amino)-2,2-dimethyl-4-oxobutyl]-2-ethoxypyridine-3-carboxamide]	630	980	920	600	1100
1100	800	850	800	150	320	1400	1400	150	260	370	160	440	570	CCOc1cc(F)c(Cl)cc1C(=O)NCC(C)(C)CC(=O)Nc1c(COC)n(C)n(-c2ccccc2)c1=O [Example 113, 5-Chloro-2-ethoxy-4-fluoro-N-(4-{[5-(methoxymethyl)-1-methyl-3-oxo-2-phenyl-2,3-dihydro-1H-pyrazol-4-yl]amino}-2,2-dimethyl-4-oxobutyl)benzamide]	460	750	640	490	650
